Experimental data taken from ChEMBL document CHEMBL1156642, “Discovery of betamethasone 17alpha-carbamates as dissociated glucocorticoid receptor modulators in the rat” (Bioorg Med Chem, 2008).
Calls of active or inactive are those of the source. The rule behind the calls is not given here.

Key:
Rattus norvegicus [1] = experiment: Effect on plasma triglyceride level in Zucker fatty rat at 30 mg/kg, after 5 days
Rattus norvegicus [2] = experiment: Effect on adrenal weight in Lewis rat with implanted cotton pellets at 19 mg/kg, po bid; assay type: functional
[3] = Plasma clearance in rat; assay type: ADME, organism-based
Rattus norvegicus [4] = experiment: Effect on body weight change in Lewis rat with implanted cotton pellets at 19 mg/kg, po bid for 4 days; assay type: functional
Rattus norvegicus [5] = experiment: Effect on spleen weight in Lewis rat with implanted cotton pellets at 5.0 mg/kg, po bid; assay type: functional
Rattus norvegicus [6] = experiment: Effect on body weight change in Lewis rat with implanted cotton pellets at 10 mg/kg, po bid for 4 days; assay type: functional
Rattus norvegicus [7] = experiment: Inhibition of granuloma formation in cotton pellet implanted Lewis rat at 5.0 mg/kg, po bid; assay type: functional
[8] = Half life in rat; assay type: ADME, organism-based; conditions: in vivo
Rattus norvegicus [9] = experiment: Inhibition of granuloma formation in cotton pellet implanted Lewis rat at 19 mg/kg, po bid; assay type: functional
Rattus norvegicus [10] = species on record: Rattus norvegicus; experiment: Transactivation activity of glutamine synthase in rat skeletal muscle cells relative to Dexamethasone; assay type: cell-based
Mus musculus = species on record: Mus musculus; experiment: Inhibition of LPS-induced TNFalpha production in mouse; assay type: functional
[11] = Oral bioavailability in rat; assay type: ADME, organism-based; conditions: in vivo
Rattus norvegicus [12] = experiment: Effect on thymus weight in Lewis rat with implanted cotton pellets at 5.0 mg/kg, po bid; assay type: functional
Rattus norvegicus [13] = experiment: Effect on body weight change in Lewis rat with implanted cotton pellets at 5.0 mg/kg, po bid for 7 days; assay type: functional
Rattus norvegicus [14] = experiment: Effect on plasma glucose level in nonfasted Zucker fatty rat at 30 mg/kg, after 5 days
Rattus norvegicus [15] = experiment: Effect on adrenal weight in Lewis rat with implanted cotton pellets at 5.0 mg/kg, po bid; assay type: functional
Rattus norvegicus [16] = experiment: Effect on thymus weight in Lewis rat with implanted cotton pellets at 19 mg/kg, po bid; assay type: functional
Progesterone receptor = target: T1, Progesterone receptor (Homo sapiens, UniProt P06401); experiment: Inhibition of human progesterone receptor
T1 sequence (P06401 whole entry): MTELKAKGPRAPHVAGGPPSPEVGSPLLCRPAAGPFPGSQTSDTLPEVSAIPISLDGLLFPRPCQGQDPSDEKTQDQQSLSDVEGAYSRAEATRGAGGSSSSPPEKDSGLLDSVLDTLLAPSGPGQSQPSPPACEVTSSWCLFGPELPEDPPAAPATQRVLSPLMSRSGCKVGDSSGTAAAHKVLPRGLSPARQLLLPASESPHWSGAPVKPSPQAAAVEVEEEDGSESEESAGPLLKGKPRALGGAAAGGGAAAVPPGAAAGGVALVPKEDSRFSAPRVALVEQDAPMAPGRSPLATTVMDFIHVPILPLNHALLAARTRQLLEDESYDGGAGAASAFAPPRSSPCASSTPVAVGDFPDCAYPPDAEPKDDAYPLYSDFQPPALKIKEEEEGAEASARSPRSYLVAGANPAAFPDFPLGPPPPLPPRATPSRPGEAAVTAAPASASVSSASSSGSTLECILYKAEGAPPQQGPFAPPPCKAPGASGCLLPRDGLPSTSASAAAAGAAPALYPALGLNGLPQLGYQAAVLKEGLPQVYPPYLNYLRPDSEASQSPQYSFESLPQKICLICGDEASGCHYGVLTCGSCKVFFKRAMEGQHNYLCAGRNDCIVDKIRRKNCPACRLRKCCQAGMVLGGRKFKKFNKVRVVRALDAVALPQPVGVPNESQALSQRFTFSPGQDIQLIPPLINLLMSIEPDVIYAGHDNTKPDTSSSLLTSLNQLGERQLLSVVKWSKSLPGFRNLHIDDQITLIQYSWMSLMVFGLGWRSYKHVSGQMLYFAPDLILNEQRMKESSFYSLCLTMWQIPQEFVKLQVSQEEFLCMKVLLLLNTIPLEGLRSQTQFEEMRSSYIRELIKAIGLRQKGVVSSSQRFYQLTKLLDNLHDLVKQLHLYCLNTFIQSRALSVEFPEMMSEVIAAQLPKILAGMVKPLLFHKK

Rattus norvegicus [17] = experiment: Inhibition of granuloma formation in cotton pellet implanted Lewis rat at 10 mg/kg, po bid; assay type: functional
[18] = Volume of distribution at steady state in rat; assay type: ADME, organism-based; conditions: in vivo, read-out: Vdss
Rattus norvegicus [19] = experiment: Effect on thymus weight in Lewis rat with implanted cotton pellets at 10 mg/kg, po bid; assay type: functional
Rattus norvegicus [20] = experiment: Effect on plasma insulin level in Zucker fatty rat at 30 mg/kg, after 5 days
Rattus norvegicus [21] = experiment: Effect on body weight change in Zucker fatty rat at 30 mg/kg, after 5 days
Rattus norvegicus [22] = experiment: Effect on body weight change in Lewis rat with implanted cotton pellets at 19 mg/kg, po bid for 7 days; assay type: functional
Glucocorticoid receptor = target: T2, Glucocorticoid receptor (Homo sapiens, UniProt P04150)
T2 sequence (P04150 whole entry): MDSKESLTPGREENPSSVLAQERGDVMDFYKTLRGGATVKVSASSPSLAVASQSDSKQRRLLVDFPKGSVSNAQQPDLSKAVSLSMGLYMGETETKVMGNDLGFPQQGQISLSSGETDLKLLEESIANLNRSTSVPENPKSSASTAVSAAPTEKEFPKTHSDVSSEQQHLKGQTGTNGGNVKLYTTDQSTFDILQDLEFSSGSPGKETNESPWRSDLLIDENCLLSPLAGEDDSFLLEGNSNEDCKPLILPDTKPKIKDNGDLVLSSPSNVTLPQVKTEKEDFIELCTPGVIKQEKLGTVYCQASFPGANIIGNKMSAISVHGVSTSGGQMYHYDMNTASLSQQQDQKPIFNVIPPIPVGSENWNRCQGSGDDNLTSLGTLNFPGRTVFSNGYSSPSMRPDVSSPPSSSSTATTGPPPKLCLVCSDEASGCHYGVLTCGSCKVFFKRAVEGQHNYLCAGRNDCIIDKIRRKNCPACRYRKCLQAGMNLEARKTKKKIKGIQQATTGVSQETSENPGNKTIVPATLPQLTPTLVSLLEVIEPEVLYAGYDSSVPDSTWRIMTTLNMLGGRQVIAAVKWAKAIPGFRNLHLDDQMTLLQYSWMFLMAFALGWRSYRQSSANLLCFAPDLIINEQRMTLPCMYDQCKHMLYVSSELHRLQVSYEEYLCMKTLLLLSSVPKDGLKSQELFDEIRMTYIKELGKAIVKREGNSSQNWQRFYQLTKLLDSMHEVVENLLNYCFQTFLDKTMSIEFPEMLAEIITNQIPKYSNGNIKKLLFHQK
Description: Inhibition of human glucocorticoid receptor

Rattus norvegicus [23] = experiment: Effect on body weight change in Lewis rat with implanted cotton pellets at 5.0 mg/kg, po bid for 4 days; assay type: functional
Rattus norvegicus [24] = experiment: Effect on spleen weight in Lewis rat with implanted cotton pellets at 10 mg/kg, po bid; assay type: functional
Rattus norvegicus [25] = experiment: Effect on spleen weight in Lewis rat with implanted cotton pellets at 19 mg/kg, po bid; assay type: functional
[26] = target: T3, Interstitial collagenase (Homo sapiens) (UniProt P03956); experiment: Inhibition of glucocorticoid-mediated human MMP1 expression in PMA stimulated A549 cells assessed as MMP1 protein level by ELISA relative to Dexamethasone; assay type: cell-based; parameters: scale not given: the % may be the effect or the level left
T3 sequence (whole entry): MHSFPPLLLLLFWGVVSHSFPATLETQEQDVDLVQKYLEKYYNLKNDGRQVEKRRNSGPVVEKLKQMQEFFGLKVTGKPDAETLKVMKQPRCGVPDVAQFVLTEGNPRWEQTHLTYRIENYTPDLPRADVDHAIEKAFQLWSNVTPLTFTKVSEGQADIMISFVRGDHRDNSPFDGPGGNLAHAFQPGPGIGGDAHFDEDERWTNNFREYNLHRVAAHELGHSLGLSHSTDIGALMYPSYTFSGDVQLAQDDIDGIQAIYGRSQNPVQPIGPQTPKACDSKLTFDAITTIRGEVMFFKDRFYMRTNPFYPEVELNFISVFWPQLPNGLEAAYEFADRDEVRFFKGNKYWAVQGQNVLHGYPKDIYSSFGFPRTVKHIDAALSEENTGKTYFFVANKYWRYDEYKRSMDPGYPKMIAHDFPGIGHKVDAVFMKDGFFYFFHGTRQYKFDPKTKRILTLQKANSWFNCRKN

Rattus norvegicus [27] = experiment: Effect on body weight change in Lewis rat with implanted cotton pellets at 10 mg/kg, po bid for 7 days; assay type: functional
Rattus norvegicus [28] = experiment: Effect on adrenal weight in Lewis rat with implanted cotton pellets at 10 mg/kg, po bid; assay type: functional
Rattus norvegicus [29] = experiment: Effect on adrenal weight in Lewis rat with implanted cotton pellets at 2.5 mg/kg, po bid; assay type: functional
Rattus norvegicus [30] = experiment: Effect on spleen weight in Lewis rat with implanted cotton pellets at 2.5 mg/kg, po bid; assay type: functional
Rattus norvegicus [31] = experiment: Effect on thymus weight in Lewis rat with implanted cotton pellets at 6.0 mg/kg, po bid; assay type: functional
Rattus norvegicus [32] = experiment: Effect on adrenal weight in Lewis rat with implanted cotton pellets at 1.0 mg/kg, po bid; assay type: functional
Rattus norvegicus [33] = experiment: Effect on body weight change in Lewis rat with implanted cotton pellets at 2.5 mg/kg, po bid for 7 days; assay type: functional
Rattus norvegicus [34] = experiment: Effect on adrenal weight in Lewis rat with implanted cotton pellets at 6.0 mg/kg, po bid; assay type: functional
Rattus norvegicus [35] = experiment: Effect on body weight change in Lewis rat with implanted cotton pellets at 6.0 mg/kg, po bid for 4 days; assay type: functional
Rattus norvegicus [36] = experiment: Inhibition of granuloma formation in cotton pellet implanted Lewis rat at 2.5 mg/kg, po bid; assay type: functional
Rattus norvegicus [37] = experiment: Effect on thymus weight in Lewis rat with implanted cotton pellets at 2.5 mg/kg, po bid; assay type: functional
Rattus norvegicus [38] = experiment: Effect on body weight change in Lewis rat with implanted cotton pellets at 2.5 mg/kg, po bid for 4 days; assay type: functional
Rattus norvegicus [39] = experiment: Effect on body weight change in Lewis rat with implanted cotton pellets at 6.0 mg/kg, po bid for 7 days; assay type: functional
Rattus norvegicus [40] = experiment: Inhibition of granuloma formation in cotton pellet implanted Lewis rat at 1.0 mg/kg, po bid; assay type: functional
Rattus norvegicus [41] = experiment: Effect on body weight change in Lewis rat with implanted cotton pellets at 1.0 mg/kg, po bid for 4 days; assay type: functional
Rattus norvegicus [42] = experiment: Effect on thymus weight in Lewis rat with implanted cotton pellets at 1.0 mg/kg, po bid; assay type: functional
Rattus norvegicus [43] = experiment: Effect on body weight change in Lewis rat with implanted cotton pellets at 1.0 mg/kg, po bid for 7 days; assay type: functional
Rattus norvegicus [44] = experiment: Effect on spleen weight in Lewis rat with implanted cotton pellets at 6.0 mg/kg, po bid; assay type: functional
Rattus norvegicus [45] = experiment: Inhibition of granuloma formation in cotton pellet implanted Lewis rat at 6.0 mg/kg, po bid; assay type: functional
Rattus norvegicus [46] = experiment: Effect on spleen weight in Lewis rat with implanted cotton pellets at 1.0 mg/kg, po bid; assay type: functional

## CCNC(=O)O[C@]1(C(=O)CO)[C@@H](C)C[C@H]2[C@@H]3CCC4=CC(=O)C=C[C@]4(C)[C@@]3(F)[C@@H](O)C[C@@]21C
Rattus norvegicus [1]
  Activity: Active
Rattus norvegicus [2]
  Activity: 30.8 mg
[3]
  clearance: 26 mL/min/kg
Rattus norvegicus [4]
  Activity: 5.6 g
Rattus norvegicus [5]
  Activity: 330.9 mg
Rattus norvegicus [6]
  Activity: 7.3 g
Rattus norvegicus [7]
  inhibition in vivo at 5 mg/kg: 35.6%
[8]
  half-life: 2.2 h
Rattus norvegicus [9]
  inhibition in vivo at 19 mg/kg: 44.6%
Rattus norvegicus [10]
  Activity: 23.4%
Mus musculus
  ED50: 0.1 mg/kg
[11]
  bioavailability: 43%
Rattus norvegicus [12]
  Activity: 170.7 mg
Rattus norvegicus [13]
  Activity: 11 g
Rattus norvegicus [14]
  Activity: Active
Rattus norvegicus [15]
  Activity: 39 mg
Rattus norvegicus [16]
  Activity: 119.9 mg
Progesterone receptor
  IC50: > 1000 nM
Rattus norvegicus [17]
  inhibition in vivo at 10 mg/kg: 33.5%
[18]
  Vd: 3.22 L/kg
Rattus norvegicus [19]
  Activity: 144.9 mg
Rattus norvegicus [20]
  Activity: Active
Rattus norvegicus [21]
  Activity: Active
Rattus norvegicus [22]
  Activity: 7.5 g
Glucocorticoid receptor
  IC50: 5.1 nM
Rattus norvegicus [23]
  Activity: 5.9 g
Rattus norvegicus [24]
  Activity: 311.2 mg
Rattus norvegicus [25]
  Activity: 305.3 mg
[26]
  Activity: 104%
Rattus norvegicus [27]
  Activity: 10 g
Rattus norvegicus [28]
  Activity: 36.8 mg

## C[C@]12C=CC(=O)C=C1CC[C@@H]1[C@@H]2[C@@H](O)C[C@@]2(C)[C@H]1CC[C@]2(O)C(=O)CO [PREDNISOLONE]
Rattus norvegicus [29]
  Activity: 26.9 mg
Rattus norvegicus [30]
  Activity: 266.8 mg
Mus musculus
  ED50: 0.5 mg/kg
Rattus norvegicus [31]
  Activity: 104 mg
Rattus norvegicus [32]
  Activity: 38.7 mg
Rattus norvegicus [33]
  Activity: -0.4 g
Rattus norvegicus [34]
  Activity: 27.9 mg
Rattus norvegicus [35]
  Activity: -3.6 g
Rattus norvegicus [36]
  inhibition in vivo at 2.5 mg/kg: 49.3%
Rattus norvegicus [37]
  Activity: 117.8 mg
Rattus norvegicus [38]
  Activity: -1 g
Rattus norvegicus [39]
  Activity: -4.1 g
Rattus norvegicus [40]
  inhibition in vivo at 1 mg/kg: 37.6%
Rattus norvegicus [41]
  Activity: 1.5 g
Rattus norvegicus [42]
  Activity: 219.5 mg
Rattus norvegicus [43]
  Activity: 3 g
Rattus norvegicus [44]
  Activity: 260 mg
Rattus norvegicus [45]
  inhibition in vivo at 6 mg/kg: 56.2%
Rattus norvegicus [46]
  Activity: 334.7 mg
